Test results published in PubChem BioAssay (NCI).
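96-well plates; 48 h exposure; 5 concentrations. Endpoints by linear interpolation between flanking doses. Not reached: highest tested concentration assigned. GI50 marks 50% less growth. Definition used: TGI = concentration required for complete inhibition of growth.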

Columns and labels:
Assay in all cases: NCI tumour cell line growth inhibition, 48 h
[1] = tested on: IGROV1 ovarian
[2] = tested on: CCRF-CEM leukemia
[3] = tested on: TK-10 renal
[4] = tested on: T-47D breast
[5] = tested on: OVCAR-8 ovarian
[6] = tested on: LOX IMVI melanoma
[7] = tested on: A549 NSCLC
[8] = tested on: HCC-2998 colon
[9] = tested on: SK-MEL-2 melanoma
[10] = tested on: UO-31 renal
[11] = tested on: KM12 colon
[12] = tested on: HOP-92 NSCLC
[13] = tested on: NCI-H23 lung
[14] = tested on: CAKI-1 renal
[15] = tested on: SK-OV-3 ovarian
[16] = tested on: U251 CNS
[17] = tested on: HCT-15 colon
[18] = tested on: NCI/ADR-RES ovarian
[19] = tested on: UACC-257 melanoma
[20] = tested on: HT29 colon
[21] = tested on: SR leukemia
[22] = tested on: NCI-H226 lung
[23] = tested on: ACHN renal
[24] = tested on: M14 melanoma
[25] = tested on: COLO 205 colon
[26] = tested on: UACC-62 melanoma
[27] = tested on: HL-60(TB) leukemia
[28] = tested on: SF-268 CNS
[29] = tested on: OVCAR-3 ovarian
[30] = tested on: PC-3 prostate
[31] = tested on: RXF 393 renal
[32] = tested on: MOLT-4 leukemia
[33] = tested on: NCI-H460 lung
[34] = tested on: MDA-MB-435
[35] = tested on: HS 578T breast
[36] = tested on: NCI-H522 lung
[37] = tested on: OVCAR-4 ovarian
[38] = tested on: SK-MEL-5 melanoma
[39] = tested on: HCT-116 colon
[40] = tested on: OVCAR-5 ovarian
[41] = tested on: MALME-3M melanoma
[42] = tested on: MDA-MB-231 breast
[43] = tested on: 786-0 renal
[44] = tested on: SNB-19 CNS
[45] = tested on: K-562 leukemia
[46] = tested on: SN12C renal
[47] = tested on: SF-295 CNS
[48] = tested on: RPMI-8226 leukemia
[49] = tested on: BT-549 breast
[50] = tested on: SK-MEL-28 melanoma
[51] = tested on: SNB-75 CNS
[52] = tested on: HOP-62 NSCLC
[53] = tested on: A498 renal
[54] = tested on: MCF7 breast
[55] = tested on: SF-539 CNS
[56] = tested on: DU-145 prostate
[57] = tested on: SW-620 colon

## COc1ccc(-c2cc(/C=C3\C(=O)Nc4cc(Cl)ccc43)[nH]n2)cc1
[1]
  GI50: 4.76 µM
  TGI: > 100 µM
[2]
  GI50: 2.24 µM
  TGI: 28.9 µM
[3]
  GI50: 7.74 µM
  TGI: > 100 µM
[4]
  GI50: 6.6 µM
  TGI: > 100 µM
[5]
  GI50: 4.55 µM
  TGI: 98.6 µM
[6]
  GI50: 4.36 µM
  TGI: > 100 µM
[7]
  GI50: 5.49 µM
  TGI: > 100 µM
[8]
  GI50: 8.72 µM
  TGI: 68.7 µM
[9]
  GI50: 4.35 µM
  TGI: > 100 µM
[10]
  GI50: 3.49 µM
  TGI: > 100 µM
[11]
  GI50: 3.46 µM
  TGI: 56.1 µM
[12]
  GI50: 2.33 µM
  TGI: 56.9 µM
[13]
  GI50: 4.27 µM
  TGI: > 100 µM
[14]
  GI50: 1.63 µM
  TGI: 21.6 µM
[15]
  GI50: 4.23 µM
  TGI: > 100 µM
[16]
  GI50: 3.46 µM
  TGI: 25.8 µM
[17]
  GI50: 2.53 µM
  TGI: > 100 µM
[18]
  GI50: 2.79 µM
  TGI: 17.5 µM
[19]
  GI50: 26.3 µM
  TGI: > 100 µM
[20]
  GI50: 3.32 µM
  TGI: 13.1 µM
[21]
  GI50: 2.44 µM
  TGI: 14.1 µM
[22]
  GI50: 13.1 µM
  TGI: 98.6 µM
[23]
  GI50: 5.49 µM
  TGI: > 100 µM
[24]
  GI50: 2.7 µM
  TGI: > 100 µM
[25]
  GI50: 2.06 µM
  TGI: 5.51 µM
[26]
  GI50: 2.46 µM
  TGI: > 100 µM
[27]
  GI50: 2.26 µM
  TGI: 6.33 µM
[28]
  GI50: 5.84 µM
  TGI: > 100 µM
[29]
  GI50: 2.59 µM
  TGI: 8.48 µM
[30]
  GI50: 2.75 µM
  TGI: > 100 µM
[31]
  GI50: 2.03 µM
  TGI: 7.36 µM
[32]
  GI50: 4.17 µM
  TGI: > 100 µM
[33]
  GI50: 3.43 µM
  TGI: 23.1 µM
[34]
  GI50: 0.416 µM
  TGI: 2.11 µM
[35]
  GI50: 2.9 µM
  TGI: 35 µM
[36]
  GI50: 1.88 µM
  TGI: 6.77 µM
[37]
  GI50: 6.79 µM
  TGI: 94.1 µM
[38]
  GI50: 1.9 µM
  TGI: 8.32 µM
[39]
  GI50: 3.63 µM
  TGI: > 100 µM
[40]
  GI50: 5.89 µM
  TGI: > 100 µM
[41]
  GI50: 6.23 µM
  TGI: > 100 µM
[42]
  GI50: 4.09 µM
  TGI: > 100 µM
[43]
  GI50: 9.71 µM
  TGI: > 100 µM
[44]
  GI50: 4.65 µM
  TGI: > 100 µM
[45]
  GI50: 1.56 µM
  TGI: 32.3 µM
[46]
  GI50: 6.69 µM
  TGI: > 100 µM
[47]
  GI50: 2.68 µM
  TGI: 12.2 µM
[48]
  GI50: 3.3 µM
  TGI: 40 µM
[49]
  GI50: 7.02 µM
  TGI: 62 µM
[50]
  GI50: 7.45 µM
  TGI: > 100 µM
[51]
  GI50: 1.78 µM
  TGI: 6.96 µM
[52]
  GI50: 2.75 µM
  TGI: 85.9 µM
[53]
  GI50: 2.38 µM
  TGI: 7.04 µM
[54]
  GI50: 2.19 µM
  TGI: 37.3 µM
[55]
  GI50: 2.41 µM
  TGI: 7.52 µM
[56]
  GI50: 3.52 µM
  TGI: 21.4 µM
[57]
  GI50: 2.57 µM
  TGI: > 100 µM
